The values below come from patent US20060241166A1, “Sapphyrins and uses thereof” (Pharmacyclica, Inc., priority 2003, published 2006).

Values joined by “and” are separate entries in the source; they are usually repeats but may differ in a detail not shown here. Equal values may be shown once.

Data set [1] deals with cells. Briefly: Annexin binding apoptosis assay, cells treated with sapphyrins for 24 hrs. It counts as cell-based. On the set-up: key: Back = background; Sat = saturated assay conditions: killing greater 95%. On the procedure: (§1) All cell lines were grown in RPMI 1640 with 10% fetal bovine serum. Cells were treated at a density of 100,000 cells/ml with sapphyrins for 24 hrs and then assessed for apoptosis. Some cells were cultured for up to 96 hrs and then assessed for growth inhibition by counting cells using a coulter counter. For the xenograft model, 10 million Ramos cells were injected subcutaneously into the right hind flank of CD-1 nude mice that had been irradiated with 3 Gy 24 hrs prior to tumor implantation. Seven days later, the mice were treated with sapphyrin given intravenously in the tail vein q day×2 doses. Some animals were sacrificed the next day for analysis of drug uptake in tumor and spleen, tumor cell killing and tumor cell culture.
Annexin binding and propidium iodide exclusion were assayed using reagents from Biosource (Camarillo, Calif.) per manufacturer's protocol.

A short description of data set [2]: Animal toxicology. As to conditions: for Animal toxicology: dose at which deaths were seen: in vivo; for Animal toxicology: highest doses that showed no deaths: numbers in parentheses.
The subject of data set [3] is cells. Briefly: Growth inhibition by cell counting 96 hrs post treatment. It counts as cell-based. As to conditions: 0.5 uM sapphyrin. Here is the method:
as §1

Data set [4] relates to Lymphoma, Leukemia and Myeloma cell lines. The data set can be described thus: Cell death in Lymphoma, Leukemia and Myeloma cell lines (FIG. 11). Particulars: 1 μM. It counts as cell-based. On the procedure:
(§2) Cytotoxicity was evaluated using Annexin-V staining and caspase activation as markers of apoptosis. Cell lines were grown in RPMI 1640 with 10% heat inactivated fetal bovine serum. Example 12 was added to cell cultures in concentrations ranging from 100 nM-5 μM.

Data set [5] deals with Ramos cells. The data set can be described thus: Cell death in Ramos cell line (FIG. 13-15). Format: cell-based. Here is the method:
as §1, §2

With `CCc1c(CC)c2cc3nc(cc4[nH]c(c(CC)c4CC)c4[nH]c(cc5nc(cc1[nH]2)C(CCCOC(=O)N(CCO)CCO)=C5C)c(CC)c4CC)C(C)=C3CCCOC(=O)N(CCO)CCO` [Example 1], the “% Annexin positive cells after 24 hrs (sapphyrin dose)” value (from here on “% Annexin positive cells after 24 hrs”) in data set [1] (1 uM sapphyrin, listed as Ex. 1) is 38% and 30%; in data set [1] (2.5 uM sapphyrin, listed as Ex. 1), 99% and 96%; in data set [1] (5 uM sapphyrin) it was “sat”; in data set [1] (0.5 Um sapphyrin), “Back”. In addition, in data set [2] (at 26.8 uM/kg), the “Animal toxicology: animals dead” value is reported as 1/9 dead at. For the same compound, the “Animal toxicology: dose at which deaths were seen” value in data set [2] is 26.8 uM/kg. In data set [2], the “Animal toxicology: highest doses that showed no deaths” value came out at 22.3 uM/kg. The “After 96 hr (GI = growth inhibition 96 hrs post treatment compared to control untreated cells)” value in data set [3] (listed as Ex. 1) was 91% and 52%.
Take `CCc1c(CC)c2cc3nc(cc4[nH]c(c(CC)c4CC)c4[nH]c(cc5nc(cc1[nH]2)C(CCCO)=C5C)c(CC)c4CC)C(C)=C3CCCO` [Example 12]: the “Increase in cell death” value in data set [4] is “at least a five-fold increase in cell death”. In addition, the “Dose response of cell death” value in data set [5] (Ramos cell line, 8 hours, FIG. 14) is reported as “An increase in the amount of Example 12 causes an increase in cell death”; in data set [5] (Ramos cell lines, 48 hours incubation, FIG. 13), “An increase in the amount of Example 12 causes an increase in cell death”.
On to `O=C1NC(=O)c2ccccc21` [Phthalimide], for which the “% Annexin positive cells after 24 hrs” value is recorded as 16% in data set [1] (1 uM sapphyrin), “sat” in data set [1] (5 uM sapphyrin) and “back” in data set [1] (0.5 Um sapphyrin). For the same compound, the “After 96 hr (GI = growth inhibition 96 hrs post treatment compared to control untreated cells)” value in data set [3] is given as “GI-50%”.
As to `CCc1c(CC)c2cc3nc(cc4[nH]c(c(CC)c4CC)c4[nH]c(cc5nc(cc1[nH]2)C(CCCOC(=O)NCCOCCOCCOC)=C5C)c(CC)c4CC)C(C)=C3CCCOC(=O)NCCOCCOCCOC` [Example 3], the “% Annexin positive cells after 24 hrs” value is listed as 93% in data set [1] (1 uM sapphyrin), “sat” in data set [1] (2.5 uM sapphyrin), “sat” in data set [1] (5 uM sapphyrin) and 10.6% in data set [1] (0.5 Um sapphyrin).
With `CCc1c(CC)c2cc3nc(cc4[nH]c(c(CC)c4CC)c4[nH]c(cc5nc(cc1[nH]2)C(CCCOC(=O)NC(CO)(CO)CO)=C5C)c(CC)c4CC)C(C)=C3CCCOC(=O)NC(CO)(CO)CO` [Example 2], the “% Annexin positive cells after 24 hrs” value in data set [1] (1 uM sapphyrin) is reported as 10%; in data set [1] (2.5 uM sapphyrin), 41%; in data set [1] (5 uM sapphyrin), 97%; in data set [1] (0.5 Um sapphyrin) it was “Back”. Besides, in data set [2] (at 40 uM/kg), the “Animal toxicology: animals dead” value was 4/6 dead. In addition, the “Animal toxicology: dose at which deaths were seen” value in data set [2] was found to be 40 uM/kg. In data set [2], the “Animal toxicology: highest doses that showed no deaths” value was determined as 30 uM/kg. In addition, in data set [3], the “After 96 hr (GI = growth inhibition 96 hrs post treatment compared to control untreated cells)” value worked out at 13%.
